Legend:
[1] = system: CV-1P (African monkey green kidney fibroblasts cells); test: In vitro transfection of plasmid DNA, β-galactosidase activity per well; assay type: cell-based; conditions: CVI-P
In short: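 CV-1P cells (20 000/well) given compound/DNA complexes at various charge ratios, prepared in 50 mM MES–50 mM HEPES–75 mM NaCl pH 7.2, 0.6 μg DNA/well, for 5 h at 37 °C, then 45 h in growth medium. Lysates assayed for β-galactosidase via oNPG hydrolysis at 405 nm against an E. coli enzyme standard; efficiency expressed as percent of Lipofectin.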

CVI-P cells = test: Cytotoxicity of amphiphile/DNA complexes, percentage of survived cells
D 407 cells = test: as above; assay type: cell-based, human; design: concentration or dose not given beside the values
plasmid DNA = test: DNA condensation/complexation, EtBr displacement assay; assay type: binding
In short: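 Plasmid DNA (0.6 μg/well) was mixed with 0.002% EtBr in 20 mM HEPES–150 mM NaCl pH 7.4, then cationic liposomes were added at various +/− charge ratios.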

[2] = system: D407 (human retinal pigment epithelial) cells; test: In vitro transfection of plasmid DNA, β-galactosidase activity per well; assay type: cell-based; conditions: D 407
Procedure: Transfer of plasmid DNA by various compounds was investigated by using CV-1P (African monkey green kidney fibroblasts cells) and D407 (human retinal pigment epithelial) cells.
The cells were cultured in Dulbecco's modified Eagle's medium (DMEM, Gibco), supplemented with 10% fetal bovine serum (FBS), penicillin/streptomycin (100 units/ml and 100 μg/ml respectively) and 2 mM L-glutamine for D 407 cell line. Cell cultures were maintained at 37° C. in a 7% CO2/air incubator. The cells were collected, counted and seeded in growth medium (100 μl) into 96-well culture plate, 20 000 cells per well. One day later the medium was replaced with fresh medium without serum (150 μl)
The complexes at different derivative/DNA charge ratios for transfection procedure were prepared just before use in 50 mM MES—50 mM HEPES—75 mM NaCl buffer, pH 7.2 in separate 96 well plates. One hour after changing the serum-free medium with 10% serum the complexes were added to the cells at 370C. Dose of DNA per well was 0.6 μg. After 5 h the complexes were removed, the cells were washed with PBS, and the normal growth medium was added. After 45 h of incubation at 37° C. the cells were lysed with 2% Triton X 100, twice deep frozen and the β-galactosidase activity in each well was determined spectrofotometrically with ELx800 automated microplate reader (Bio-Tex Instruments Inc., Winooski, Vt. USA) by monitoring the hydrolysis of o-nitrophenylgalactopyranoside (oNPG) at 405 nm. Purified β-galactosidase from E.coli was used to construct a standard curve and to calculate 9-galactosidase activity in the transfected cells. […] Transfection efficiencies are given as percentage in comparison to transfection efficiency of Lipofectin^R.

[3] = amphiphile/DNA +/− charge ratio 0.5
[4] = amphiphile/DNA +/− charge ratio 1
[5] = amphiphile/DNA +/− charge ratio 2
[6] = amphiphile/DNA +/− charge ratio 4
[7] = amphiphile/DNA +/− charge ratio 8

SMILES	cytotoxicity as a percentage of survived cells (CVI-P cells; [3])	cytotoxicity as a percentage of survived cells (CVI-P cells; [4])	cytotoxicity as a percentage of survived cells (CVI-P cells; [5])	cytotoxicity as a percentage of survived cells (CVI-P cells; [6])	cytotoxicity as a percentage of survived cells (CVI-P cells; [7])	complexation, percentage of the maximum fluorescence signal when EtBr bound to DNA in the absence of an amphiphile (plasmid DNA; [3])	complexation, percentage of the maximum fluorescence signal when EtBr bound to DNA in the absence of an amphiphile (plasmid DNA; [4])	complexation, percentage of the maximum fluorescence signal when EtBr bound to DNA in the absence of an amphiphile (plasmid DNA; [5])	complexation, percentage of the maximum fluorescence signal when EtBr bound to DNA in the absence of an amphiphile (plasmid DNA; [6])	complexation, percentage of the maximum fluorescence signal when EtBr bound to DNA in the absence of an amphiphile (plasmid DNA; [7])	melting point	further results
CCCCCCCCCCCCCCOC(=O)C1=C(C)NC(C)=C(C(=O)OCCCCCCCCCCCCCC)C1c1ccc[n+](C)c1.I.[I-] [VI, 1′,4′-Dihydro-1,2′,6′-trimethyl-3′,5′-bis(tetradecyloxycarbonyl)-3,4′-bipyridinium iodide]	94,05%	89,46%	90,38%	45,6%	7,52%	93,25%	84,75%	78,9%	74,85%	71,05%	114 to 115 °C	transfection efficiency [1, 3]: 0,81 β-galactosidase units per well; transfection efficiency [1, 4]: 0,82 β-galactosidase units per well; transfection efficiency [1, 5]: 4,82 β-galactosidase units per well; transfection efficiency [1, 6]: 2,16 β-galactosidase units per well; transfection efficiency [1, 7]: 1,27 β-galactosidase units per well; cytotoxicity as a percentage of survived cells (D 407 cells; [3]): 98,6%; cytotoxicity as a percentage of survived cells (D 407 cells; [4]): 94,43%; cytotoxicity as a percentage of survived cells (D 407 cells; [5]): 79,12%; cytotoxicity as a percentage of survived cells (D 407 cells; [6]): 12,13%; cytotoxicity as a percentage of survived cells (D 407 cells; [7]): 5,11%; transfection efficiency [2, 3]: 0,53 β-galactosidase units per well; transfection efficiency [2, 4]: 16,56 β-galactosidase units per well; transfection efficiency [2, 5]: 35,6 β-galactosidase units per well; transfection efficiency [2, 6]: 1,21 β-galactosidase units per well; transfection efficiency [2, 7]: 1,08 β-galactosidase units per well
CCCCCCCCCCCCCCCC(=O)OCCCOC(=O)C1=C(C)NC(C)=C(C(=O)OCCCOC(=O)CCCCCCCCCCCCCCC)C1c1ccc[n+](C)c1.I.[I-] [III, 1′,4′-Dihydro-1,2′,6′-trimethyl-3′,5′-bis[(3-palmitoyloxypropoxy)carbonyl]-3,4′-bipyridinium iodide]	87,86%	81,86%	72,04%	54,84%	68,47%	93,2%	83,2%	76,7%	74,6%	74,7%	143 to 146 °C	transfection, result in words ([1]; entry spans the charge ratios 8-0.5): No signal

— patent publication US20030064954A1, “Cationic amphiphilic 1,4-dihydropyridine derivatives useful for delivery of nucleotide containing compounds” (priority 2000, published 2003)
